Laboratory results reported in patent US9326973B2, “Hepatitis C virus inhibitors” (priority 2012, dated 2016).

Tested on: HCV replicon, genotype-1a variant with glutamine 30 changed to glutamate in the NS5A protein
Test: microbe, parasite or virus in culture
Assay type: cell-based, HCV genotype 1a
Conditions: HCV replicon genotype 1a Q30E (Q→E) variant; test compound titrated with an NS5A-targeting compound (BMS-790052 fixed at 200 nM); ranking of synergist activity
From the text: The NS5A synergistic inhibitory effect of test compounds can be determined using various amounts of an NS5A-targeting compound with titration of a second compound of interest. […] In one embodiment, the HCV genotype strain can be genotype 1a containing a change at amino acid 30 of the NS5A protein consisting of glutamine to glutamate. The test compound can be chosen from compounds listed above or from others present in the literature.

Compound | Fold-Synergistic 1a (Q30E) [fold]
CC(C)(C)OC(=O)N1[C@@H]2CC[C@@H](C2)[C@H]1C(=O)N[C@H](c1nc(-c2ccc(-c3ccc(-c4c[nH]c([C@@H](NC(=O)[C@@H]5[C@H]6CC[C@H](C6)N5C(=O)OC(C)(C)C)C(C)(C)C)n4)cc3)cc2)c[nH]1)C(C)(C)C [Compound W-121] | >100
O=C(CCn1ccc2ccccc21)N1CCC[C@H]1c1ncc(-c2ccc(-c3ccc(-c4cnc([C@@H]5CCCN5C(=O)CCn5ccc6ccccc65)[nH]4)cc3)cc2)[nH]1 [Compound S-151] | >10
COC(=O)N[C@@H](C(=O)N[C@H](c1nc(-c2ccc3cc(-c4ccc(-c5cnc([C@@H](NC(=O)[C@H](NC(=O)OC)C(C)C)C(C)(C)C)[nH]5)cc4)ccc3c2)c[nH]1)C(C)(C)C)C(C)C [Compound N-8] | >10
COC(=O)N[C@@H]1CCCCC1C(=O)N[C@H](c1nc(-c2ccc(-c3ccc(-c4c[nH]c([C@@H](NC(=O)C5CCCC[C@H]5NC(=O)OC)C(C)(C)C)n4)cc3)cc2)c[nH]1)C(C)(C)C (stereo partly drawn) [Compound S-275] | >100
CC1(C)CCCC(C)(C(=O)N[C@H](c2nc(-c3ccc(-c4ccc(-c5c[nH]c([C@@H](NC(=O)C6(C)CCCC(C)(C)O6)C(C)(C)C)n5)cc4)cc3)c[nH]2)C(C)(C)C)O1 (stereo partly drawn) [Compound W-167] | >100
CC(C)(C)OC(=O)N1CC2(CC(C(=O)N[C@H](c3nc(-c4ccc(-c5ccc(-c6c[nH]c([C@@H](NC(=O)C7CC8(C7)CN(C(=O)OC(C)(C)C)C8)C(C)(C)C)n6)cc5)cc4)c[nH]3)C(C)(C)C)C2)C1 (stereo partly drawn) [Compound L-57] | >100
CC(C)(C)[C@H](NC(=O)C1(CF)CCCCO1)c1nc(-c2ccc(-c3ccc(-c4c[nH]c([C@@H](NC(=O)C5(CF)CCCCO5)C(C)(C)C)n4)cc3)cc2)c[nH]1 (stereo partly drawn) [Compound P-178] | >100
CC(C)(C)OC(=O)N1[C@H](C(=O)N[C@H](c2nc(-c3ccc(-c4ccc(-c5c[nH]c([C@@H](NC(=O)[C@@H]6COC(C)(C)N6C(=O)OC(C)(C)C)C(C)(C)C)n5)cc4)cc3)c[nH]2)C(C)(C)C)COC1(C)C [Compound L-55] | >100
Cc1ccc(S(=O)(=O)N[C@H](c2ncc(-c3ccc(-c4ccc(-c5cnc([C@@H](NS(=O)(=O)c6ccc(C)cc6)C(C)C)[nH]5)cc4)cc3)[nH]2)C(C)C)cc1 [Compound Y-58] | >100
CC1([C@H](NC(=O)C(=O)N2CCC(C(F)(F)F)CC2)c2nc(-c3ccc(-c4ccc(-c5c[nH]c([C@@H](NC(=O)C(=O)N6CCC(C(F)(F)F)CC6)C6(C)CC6)n5)cc4)cc3)c[nH]2)CC1 [Compound W-59] | >100
COCCOC(=O)N1C[C@H](F)C[C@H]1C(=O)N[C@H](c1nc(-c2ccc(-c3ccc(-c4c[nH]c([C@@H](NC(=O)[C@@H]5C[C@@H](F)CN5C(=O)OCCOC)C(C)(C)C)n4)cc3)cc2)c[nH]1)C(C)(C)C [Compound W-110] | >100
CCCCC(=O)N1CCC[C@H]1c1ncc(-c2ccc(-c3ccc(-c4cnc([C@@H]5CCCN5C(=O)CCCC)[nH]4)cc3)cc2)[nH]1 [Compound S-180] | <10
COC(=O)N[C@H](C(=O)NC1(c2nc(-c3ccc(-c4ccc(-c5c[nH]c(C6(NC(=O)[C@@H](NC(=O)OC)C(C)C)Cc7ccccc7C6)n5)cc4)cc3)c[nH]2)Cc2ccccc2C1)C(C)C [Compound N-18] | <10
O=C(Cc1ccc(-c2ccccc2)cc1)N1CCC[C@H]1c1ncc(-c2ccc(-c3ccc(-c4cnc([C@@H]5CCCN5C(=O)Cc5ccc(-c6ccccc6)cc5)[nH]4)cc3)cc2)[nH]1 [Compound S-147] | <10
CC1([C@H](NC(=O)C2CC(=O)C2)c2nc(-c3ccc(-c4ccc(-c5c[nH]c([C@@H](NC(=O)C6CC(=O)C6)C6(C)CC6)n5)cc4)cc3)c[nH]2)CC1 [Compound W-174] | >100
CC1(C)CCCC(C)(C(=O)N[C@H](c2nc(-c3ccc(-c4ccc(-c5c[nH]c([C@@H](NC(=O)C6(C)CCCC(C)(C)O6)C(C)(C)C)n5)cc4)cc3)c[nH]2)C(C)(C)C)O1 (stereo partly drawn) [Compound W-168] | >10
C[C@H]1CCN(C(=O)C2CCC(F)(F)CC2)[C@@H]1c1nc(-c2ccc(-c3ccc(-c4c[nH]c([C@@H]5[C@@H](C)CCN5C(=O)C5CCC(F)(F)CC5)n4)cc3)cc2)c[nH]1 [Compound W-188] | >10
C[C@@H]1CN(C(C)(C)C(=O)N[C@H](c2nc(-c3ccc(-c4ccc(-c5c[nH]c([C@@H](NC(=O)C(C)(C)N6C[C@@H](C)O[C@@H](C)C6)C6(C)CC6)n5)cc4)cc3)c[nH]2)C2(C)CC2)C[C@H](C)O1 [Compound W-162] | >100

Compound | Fold-Synergistic 1a (Q30E) [fold]
Cc1cc(-c2ccc(-c3c[nH]c([C@@H](NC(=O)C4CC(F)(F)C4)C(C)C)n3)cc2)ccc1-c1c[nH]c([C@@H](NC(=O)C2CC(F)(F)C2)C(C)C)n1 [Compound N-78] | >100
CC(C)[C@H](NC(=O)C1(N2CCC(F)(F)CC2)COC1)c1nc(-c2ccc(-c3ccc(-c4c[nH]c([C@@H](NC(=O)C5(N6CCC(F)(F)CC6)COC5)C(C)C)n4)cc3)cc2)c[nH]1 [Compound W-64] | >100
CC(C)N(CC(F)(F)F)C(=O)C(=O)N[C@H](c1nc(-c2ccc(-c3ccc(-c4c[nH]c([C@@H](NC(=O)C(=O)N(CC(F)(F)F)C(C)C)C(C)(C)C)n4)cc3)cc2)c[nH]1)C(C)(C)C [Compound W-66] | >100
CC(C)(C)OC(=O)NC1(C(=O)N[C@H](c2nc(-c3ccc(-c4ccc(-c5c[nH]c([C@@H](NC(=O)C6(NC(=O)OC(C)(C)C)CCOCC6)C(C)(C)C)n5)cc4)cc3)c[nH]2)C(C)(C)C)CCOCC1 [Compound W-132] | >100
COC(=O)N[C@H](C(=O)NC1(c2nc(-c3ccc(-c4ccc(-c5c[nH]c(C6(NC(=O)[C@@H](NC(=O)OC)C(C)C)CCCCC6)n5)cc4)cc3)c[nH]2)CCCCC1)C(C)C [Compound N-23] | <10
CC(C)CC(=O)N[C@@H](Cc1ccc2ccccc2c1)c1nc(-c2ccc(-c3ccc(-c4c[nH]c([C@H](Cc5ccc6ccccc6c5)NC(=O)CC(C)C)n4)cc3)cc2)c[nH]1 [Compound P-8] | <10
CC(C)[C@H](NC(=O)[C@@]1(C)CC(F)(F)CO1)c1nc(-c2ccc(-c3ccc(-c4c[nH]c([C@@H](NC(=O)[C@@]5(C)CC(F)(F)CO5)C(C)C)n4)cc3)cc2)c[nH]1 [Compound Y-80] | >100
COC(=O)N[C@@H](C(=O)NC1(c2nc(-c3ccc(-c4ccc(-c5c[nH]c(C6(NC(=O)[C@H](NC(=O)OC)C(C)C)CC=CC6)n5)cc4)cc3)c[nH]2)CC=CC1)C(C)C [Compound N-14] | <10
CC(C)(C)[C@H](NC(=O)C1C2C3CCC(C3)C12)c1nc(-c2ccc(-c3ccc(-c4c[nH]c([C@@H](NC(=O)C5C6C7CCC(C7)C56)C(C)(C)C)n4)cc3)cc2)c[nH]1 (stereo partly drawn) [Compound Y-62] | >100
COC(=O)N[C@H](C(=O)N[C@H](c1nc(-c2ccc(-c3ccc(-c4c[nH]c([C@@H](NC(=O)[C@@H](NC(=O)OC)C(C)C)C(C)(C)C)n4)cc3)cc2)c[nH]1)C(C)(C)C)C(C)C [Compound N-35] | >100
CC(C)(C)[C@H](NC(=O)[C@@H]1CCCO1)c1nc(-c2ccc(-c3ccc(-c4c[nH]c([C@@H](NC(=O)[C@@H]5CCCO5)C(C)(C)C)n4)cc3)cc2)c[nH]1 [Compound L-65] | >100
CC(C)(C)[C@H](NC(=O)CC1CCOC2(CC2)C1)c1nc(-c2ccc(-c3ccc(-c4c[nH]c([C@@H](NC(=O)CC5CCOC6(CC6)C5)C(C)(C)C)n4)cc3)cc2)c[nH]1 (stereo partly drawn) [Compound L-75] | >100
CC(C)N(C(=O)OC1(C(=O)N[C@H](c2nc(-c3ccc(-c4ccc(-c5c[nH]c([C@@H](NC(=O)C6(OC(=O)N(C(C)C)C(C)C)CC6)C(C)(C)C)n5)cc4)cc3)c[nH]2)C(C)(C)C)CC1)C(C)C [Compound L-38] | >100
COCC1(C(=O)N[C@H](c2nc(-c3ccc(-c4ccc(-c5c[nH]c([C@@H](NC(=O)C6(COC)CCCCO6)C(C)(C)C)n5)cc4)cc3)c[nH]2)C(C)(C)C)CCCCO1 (stereo partly drawn) [Compound P-183] | >100
O=C(c1ccnnc1)N1CCC[C@H]1c1ncc(-c2ccc(-c3ccc(-c4cnc([C@@H]5CCCN5C(=O)c5ccnnc5)[nH]4)cc3)cc2)[nH]1 [Compound S-187] | <10
CC(C)[C@H](NC(=O)C(C)(C)C)c1nc(-c2ccc(-c3ccc(-c4c[nH]c([C@@H](NC(=O)C(C)(C)C)C(C)C)n4)cn3)cc2)c[nH]1 [Compound N-103] | >100
CC(C)(C)[C@H](NC(=O)[C@H]1C[C@@](C)(O)C1)c1nc(-c2ccc(-c3ccc(-c4c[nH]c([C@@H](NC(=O)[C@H]5C[C@@](C)(O)C5)C(C)(C)C)n4)cc3)cc2)c[nH]1 [Compound W-169] | >100
C=C[C@H]1C[C@@]1(NC(=O)OC(C)(C)C)C(=O)N[C@H](c1nc(-c2ccc(-c3ccc(-c4c[nH]c([C@@H](NC(=O)[C@]5(NC(=O)OC(C)(C)C)C[C@@H]5C=C)C(C)(C)C)n4)cc3)cc2)c[nH]1)C(C)(C)C [Compound W-4] | >100

Same assay, conditions: Hepatitis C virus; genotype 1a Q30E replicon; BMS-790052 fixed at 200 nM; read-out: EC50 of P-55 in the presence of a fixed amount of BMS-790052

Compound | EC50 [nM]
CC(C)CC(=O)N[C@H](c1ncc(-c2ccc(-c3ccc(-c4cnc([C@@H](NC(=O)CC(C)C)C(C)C)[nH]4)cc3)cc2)[nH]1)C(C)C [Compound P-55] | ~2

Same assay, conditions: Hepatitis C virus; genotype 1a Q30E replicon; compound alone; read-out: EC50, titrated singly

Compound | EC50 [nM]
CC(C)CC(=O)N[C@H](c1ncc(-c2ccc(-c3ccc(-c4cnc([C@@H](NC(=O)CC(C)C)C(C)C)[nH]4)cc3)cc2)[nH]1)C(C)C [Compound P-55] | > 200

Same assay, conditions: genotype 1a Q30E replicon; P-55 titrated with 200 nM BMS-790052

Compound | synergistic inhibitory effect with the combination [fold]
CC(C)CC(=O)N[C@H](c1ncc(-c2ccc(-c3ccc(-c4cnc([C@@H](NC(=O)CC(C)C)C(C)C)[nH]4)cc3)cc2)[nH]1)C(C)C [Compound P-55] | > 100
